Laboratory results reported in the NIST ThermoML archive (doi:10.1016/j.jct.2005.12.012).
Several values for one entry are separate records, joined by “and”; a condition that tells them apart may be missing. Equal entries are not always repeated.

Settings: Crystal

[Cl][Fe]([Cl])[Cl] [ferric chloride]
Settings	vapor or sublimation pressure
383.9 K	2.16e-05 kPa
386.3 K	1.586e-05 kPa and 2.159e-05 kPa
389.3 K	4.466e-05 kPa
389.6 K	3.81e-05 kPa
389.7 K	3.88e-05 kPa
390.4 K	3.533e-05 kPa
392 K	3.693e-05 kPa
392.7 K	6.293e-05 kPa
393.8 K	8.506e-05 kPa
394.2 K	6.506e-05 kPa
394.8 K	9.106e-05 kPa
394.9 K	4.68e-05 kPa and 7.493e-05 kPa
395.1 K	5.706e-05 kPa
395.4 K	7.039e-05 kPa
396.6 K	7.053e-05 kPa
398 K	6.426e-05 kPa
398.6 K	0.0001123 kPa
398.9 K	0.0001423 kPa
399 K	0.0001348 kPa and 0.0001191 kPa
401.2 K	0.0001035 kPa
403 K	0.0001712 kPa and 0.0001621 kPa and 0.0001703 kPa
403.2 K	0.0002573 kPa
403.3 K	0.0001812 kPa
404.5 K	0.0002585 kPa
404.6 K	0.000249 kPa
407.7 K	0.0003298 kPa
408.6 K	0.000386 kPa and 0.0003425 kPa
409.1 K	0.000328 kPa
409.3 K	0.0003058 kPa
409.8 K	0.0004945 kPa
409.9 K	0.0003822 kPa
412.7 K	0.0003274 kPa
413.5 K	0.0004797 kPa
413.9 K	0.0005921 kPa and 0.0007087 kPa
414.1 K	0.0005326 kPa
414.6 K	0.0007097 kPa
416.4 K	0.0004961 kPa and 0.0004838 kPa
418.4 K	0.001063 kPa
419.3 K	0.0007021 kPa and 0.001331 kPa
419.4 K	0.0008229 kPa
419.8 K	0.0006339 kPa
419.9 K	0.0009366 kPa
421.9 K	0.0009899 kPa
422.2 K	0.001008 kPa
423.6 K	0.001647 kPa
424 K	0.00111 kPa
424.2 K	0.001053 kPa
424.8 K	0.001549 kPa
424.9 K	0.001033 kPa
425.6 K	0.001455 kPa
426.4 K	0.001488 kPa
426.8 K	0.001202 kPa
428.8 K	0.001767 kPa and 0.001985 kPa
429.2 K	0.002648 kPa
430.9 K	0.002751 kPa
431.6 K	0.001895 kPa
434 K	0.003812 kPa
434.4 K	0.003132 kPa
434.5 K	0.004177 kPa
439.7 K	0.006419 kPa
445.2 K	0.008538 kPa
